Measured values as given in article PMC7611167 (Journal of medicinal chemistry, 2019).

Key:
[1] = tested on: A/Puerto Rico/8/34 (H1N1); assay type: cell-based, influenza A virus
[2] = molecular target: T1, aldehyde oxidase (AO) (Homo sapiens, UniProt Q06278); experiment: Aldehyde oxidase metabolism in human liver cytosol; assay type: in vitro ADME; settings: 1 μM, 1 mg/mL protein, 37°C, up to 60 minutes, with or without Raloxifene
T1 sequence (Q06278 1-1338): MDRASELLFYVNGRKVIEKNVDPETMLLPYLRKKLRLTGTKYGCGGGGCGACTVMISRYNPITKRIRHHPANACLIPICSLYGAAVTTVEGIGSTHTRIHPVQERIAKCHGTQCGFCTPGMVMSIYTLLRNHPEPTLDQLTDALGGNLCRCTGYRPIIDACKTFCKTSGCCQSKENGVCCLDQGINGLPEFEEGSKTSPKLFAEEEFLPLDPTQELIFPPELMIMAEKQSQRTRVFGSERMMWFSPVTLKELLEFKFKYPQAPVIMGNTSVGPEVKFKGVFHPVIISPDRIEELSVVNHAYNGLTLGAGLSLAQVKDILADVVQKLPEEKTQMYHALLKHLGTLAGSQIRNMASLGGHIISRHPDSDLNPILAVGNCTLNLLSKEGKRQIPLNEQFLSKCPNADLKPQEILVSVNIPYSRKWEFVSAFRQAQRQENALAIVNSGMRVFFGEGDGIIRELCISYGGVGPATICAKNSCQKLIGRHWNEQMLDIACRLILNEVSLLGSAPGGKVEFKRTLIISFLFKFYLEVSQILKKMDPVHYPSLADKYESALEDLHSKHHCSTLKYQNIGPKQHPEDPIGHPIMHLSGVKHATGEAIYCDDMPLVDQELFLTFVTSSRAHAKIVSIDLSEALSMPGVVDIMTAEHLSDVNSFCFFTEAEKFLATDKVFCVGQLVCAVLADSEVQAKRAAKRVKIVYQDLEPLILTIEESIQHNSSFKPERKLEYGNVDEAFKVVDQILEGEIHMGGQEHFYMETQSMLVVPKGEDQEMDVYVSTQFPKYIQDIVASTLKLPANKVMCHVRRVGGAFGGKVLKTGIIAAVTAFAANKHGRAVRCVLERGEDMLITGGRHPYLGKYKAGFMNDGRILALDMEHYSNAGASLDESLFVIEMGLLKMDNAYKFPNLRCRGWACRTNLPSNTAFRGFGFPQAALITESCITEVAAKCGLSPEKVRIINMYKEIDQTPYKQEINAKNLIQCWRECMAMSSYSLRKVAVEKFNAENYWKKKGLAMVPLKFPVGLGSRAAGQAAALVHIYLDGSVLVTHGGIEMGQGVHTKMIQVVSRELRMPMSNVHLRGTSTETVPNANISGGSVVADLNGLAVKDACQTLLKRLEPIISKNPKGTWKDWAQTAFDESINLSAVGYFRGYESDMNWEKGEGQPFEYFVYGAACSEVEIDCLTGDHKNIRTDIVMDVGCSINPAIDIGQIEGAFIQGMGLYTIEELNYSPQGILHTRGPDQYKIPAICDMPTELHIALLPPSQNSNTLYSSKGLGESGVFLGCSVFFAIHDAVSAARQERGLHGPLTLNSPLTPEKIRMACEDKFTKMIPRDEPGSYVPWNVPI

[3] = tested on: panel of 59 kinases; experiment: Kinase panel; assay type: biochemical
[4] = tested on: influenza A/Puerto Rico/8/34 (H1N1); settings: mouse, in vivo, po, 30 mg/kg
[5] = molecular target: GSK3β (Homo sapiens, UniProt P49841); experiment: Kinase panel, GSK3β; assay type: biochemical; settings: at 1μM
Chain of GSK3β (P49841 whole entry, species assumed): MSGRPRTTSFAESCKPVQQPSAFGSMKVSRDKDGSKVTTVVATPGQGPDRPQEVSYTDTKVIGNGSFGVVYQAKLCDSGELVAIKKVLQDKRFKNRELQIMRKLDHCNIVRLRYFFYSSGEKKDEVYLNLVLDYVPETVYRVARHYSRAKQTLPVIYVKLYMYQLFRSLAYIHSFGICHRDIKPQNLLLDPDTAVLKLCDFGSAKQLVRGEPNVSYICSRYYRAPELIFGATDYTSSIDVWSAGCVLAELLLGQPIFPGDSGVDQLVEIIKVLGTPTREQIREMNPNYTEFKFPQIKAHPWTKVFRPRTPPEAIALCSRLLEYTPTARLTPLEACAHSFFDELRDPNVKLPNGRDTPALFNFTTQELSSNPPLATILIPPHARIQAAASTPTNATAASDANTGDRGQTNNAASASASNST

Q: Which “A/Puerto Rico/8/34 SI (selectivity index, CC50/IC50)” value [1] does the source give for CCOC(=O)C1=C[C@@H](OC(CC)CC)[C@H](NC(C)=O)[C@@H](N)C1 [Oseltamivir, reference compound] here?
A: >4132

Q: Which “A/Puerto Rico/8/34 SI (selectivity index, CC50/IC50)” value [1] does the source give for O=C(O)[C@H]1C2CCC(CC2)[C@@H]1Nc1nc(-c2c[nH]c3c(F)cc(Cl)cc23)ncc1F [Compound 11b, (2S,3S)-3-((2-(5-chloro-7-fluoro-1H-indol-3-yl)-5-fluoropyrimidin-4-yl)amino)bicyclo-[2.2.2]octane-2-carboxylic acid] here?
A: >485

Q: Which “Aldehyde oxidase (AO) metabolism in human liver cytosol” value [2] does the source give for c1ccc2cnncc2c1 [phthalazine] here?
A: AO metabolism in the normal range

Q: N#Cc1cc(F)c2[nH]cc(-c3ncc(F)c(N[C@H]4C5CCC(CC5)[C@@H]4C(=O)O)n3)c2c1 [Compound 11d, (2S,3S)-3-((2-(5-cyano-7-fluoro-1H-indol-3-yl)-5-fluoropyrimidin-4-yl)amino) bicyclo[2.2.2]octane-2-carboxylic acid] was tested. Which “A/Puerto Rico/8/34 SI (selectivity index, CC50/IC50)” value [1] did it give?
A: >612

Q: For O=C(O)[C@H]1C2CCC(CC2)[C@@H]1Nc1nc(-c2c[nH]c3c(F)cc(F)cc23)ncc1F [Compound 11a, (2S,3S)-3-((2-(5,7-difluoro-1H-indol-3-yl)-5-fluoropyrimidin-4-yl)amino)bicyclo [2.2.2]octane-2-carboxylic acid], which “Activity across a panel of 59 kinases” value [3] is on record?
A: inactive

Q: What about the Body weight course [4] of the same molecule?
A: regained weight from day 11

Q: What about the GSK3β inhibition [5] of the same molecule?
A: no inhibition
